{
  "source": "patent US5753631A",
  "about": "“Intercellular adhesion mediators” (Cytel Corporation, priority 1995, dated 1998)",
  "key": {"[1]": {"test_system": "IgG immune complex-induced acute lung injury", "assay": "IgG immune complex-induced acute lung injury in the rat", "format": "in vivo, rat (male Long-Evans)", "details": "for effect on IgG immune complex-induced neutrophil accumulation / lung injury: conclusion in words"}, "[2]": {"test_system": "histamine induced leukocyte rolling in rat mesenteric venules", "assay": "Histamine induced leukocyte rolling and adherence in rat mesenteric venules (intravital microscopy)", "format": "in vivo, rat (male Sprague-Dawley)", "details": "for effect on histamine induced leukocyte rolling: 10^-5 M histamine, FIG. 15; for Erythrocyte velocity / Leukocyte adherence / Leukocyte emigration / Venular diameter / Wall shear rate: with histamine 10^-5 M, Z, SLN 10 mg/Kg i.v., antibodies 2 mg/Kg i.v.", "experimental": "Surgical procedure. Sixty-four male Sprague-Dawley rats (200-250 g) were maintained on a purified laboratory diet and fasted for 24 hours prior to the experiment. The animals were initially anesthetized with pentobarbital (65 mg/kg body weight), then a tracheotomy was performed to facilitate breathing during the experiment. The right carotid artery was cannulated and systemic arterial pressure was measured with a Statham (Oxnard, Calif.) P23A pressure transducer connected to the carotid artery cannula. Systemic blood pressure and heart rate were continuously recorded with a Grass physiologic recorder (Grass Instruments, Massachusetts). The left jugular vein was also cannulated for drug administration and blood sample collection. After a midline abdominal incision a segment of the mid-jejunum was exteriorized. All exposed tissue was moistened with saline-soaked gauze to minimize evaporation and dehydration.\nIntravital microscopy. Rats were placed in a supine position on an adjustable plexiglass microscope stage and the mesentery was draped over an optically clear coverslip that allowed for observation of a 2 cm^2 segment of tissue. The temperature of the pedestal was maintained at 37° C. with a constant temperature circulator (Fisher Scientific, model 80). A small rubber gasket (area=3.14 cm^2) was placed on the mesentery and the outside area of contact between the gasket and mesentery was sealed (to prevent leakage of superfusate from the ring) with a mixture of high vacuum grease (Dow Corning Corp., Midland, Mich.) and white petrolatum (E. Fougera & Co., Melville, N.Y.). Rectal and mesenteric temperatures were continuously monitored using an electrothermometer. The exposed bowel wall was covered with Saran Wrap (Dow Chemical Co., Indiana), and the mesenteric tissue within the gasket was suffused with warmed bicarbonate-buffered saline (BBS; pH 7.4) that was bubbled with a mixture of 5% O2; 5% CO2; 90% N2.\nAn inverted microscope (Nikon Optiphoto, Japan) with a ×40 objective lens (Nikon Optiphoto, Japan) and a ×10 eyepiece was used to observe the mesenteric microcirculation. The mesentery was transilluminated with a 12 V-100 W direct current-stabilized light source. A video camera (Hitachi, VK-C150, Japan) mounted on the microscope projected the image onto a color monitor (Sony, PVM-2030, Japan), and the images were recorded using a video cassette recorder (Panasonic, NV8950, Japan). A video time-date generator (Panasonic, WJ810, Japan) projected the time, date, and stopwatch function onto the monitor.\nSingle unbranched venules with diameters ranging between 25 μm and 35 μm and a length>150 μm were selected for study. Venular diameter (Dv) was measured either on- or off-line using a video image-shearing monitor (IPM, La Mesa, Calif.). The number of adherent leukocytes was determined off-line during playback of videotaped images. A leukocyte was considered to be adherent to venular endothelium if it remained stationary for a period equal to or greater than 30 seconds. Adherent cells were expressed as the number per 100 μm length of venule. The number of emigrated leukocytes was also determined off-line during playback of videotaped images. Ary interstitial leukocytes present in the mesentery at the onset of the experiment were subtracted from the total number of leukocytes that accumulated during the course of the experiment. Leukocyte emigration was expressed as the number per microscopic field (1.7×10^-2 mm^2) or 150 μm length of venule. Rolling leukocytes were defined as those white blood cells that moved at a velocity less than that of erythrocytes in the same stream. The flux of rolling leukocytes was determined as the number of rolling leukocytes which crossed a fixed point on the venule over a given period of time. Leukocyte rolling velocity was determined from the time required for a leukocyte to roll along a given distance of the venule."}, "recombinant E-selectin": {"target": "T1, recombinant E-selectin (Homo sapiens, UniProt P16581)", "T1 sequence (P16581 22-556 limits assumed)": "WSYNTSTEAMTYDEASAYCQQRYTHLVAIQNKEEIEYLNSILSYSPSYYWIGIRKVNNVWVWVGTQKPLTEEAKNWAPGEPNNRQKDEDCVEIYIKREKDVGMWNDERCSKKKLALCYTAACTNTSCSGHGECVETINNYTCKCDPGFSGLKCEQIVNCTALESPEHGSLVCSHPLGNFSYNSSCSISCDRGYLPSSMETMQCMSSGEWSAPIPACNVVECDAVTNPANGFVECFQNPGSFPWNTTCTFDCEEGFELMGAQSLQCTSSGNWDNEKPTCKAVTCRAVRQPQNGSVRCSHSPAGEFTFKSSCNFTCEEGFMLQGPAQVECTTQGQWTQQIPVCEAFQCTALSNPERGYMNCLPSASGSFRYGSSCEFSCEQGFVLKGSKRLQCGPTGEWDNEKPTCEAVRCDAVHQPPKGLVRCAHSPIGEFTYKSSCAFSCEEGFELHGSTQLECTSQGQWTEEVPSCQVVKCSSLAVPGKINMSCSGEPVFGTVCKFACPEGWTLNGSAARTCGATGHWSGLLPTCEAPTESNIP", "assay": "HL-60 cell binding to recombinant E-selectin", "format": "cell-based", "details": "for inhibition of binding of HL-60 cells to recombinant E-selectin: FIG. 13", "experimental": "In this assay recombinant soluble E-selectin is bound to the plastic surface of a 96 well ELISA plate. Dilutions of test compounds are added to the wells followed by HL-60 cells which bear the ligand for E-selectin. The cells are allowed to adhere to the E-selectin coated assay plate and the nonadherent cells are removed by washing the plate with an automated plate washer. Bound cells are quantitated by measuring the cellular enzyme myeloperoxidase. The concentration of oligosaccharide required to achieve 50% inhibition of control adhesion is used to compare analogs for potency.\nMicroflex III 96 well ELISA plates were coated with 50 μL of recombinant E-selectin (4 μg/mL) in Dulbecco's phosphate buffered saline (DPBS) and incubated at room temperature for 3 hours. The plates were then washed three times with 200 μL DPBS containing bovine serum albumin (10 mg/mL: DPBS-BSA) and incubated at room temperature for 60 minutes with DPBS-BSA.\nOligosaccharides to be tested were prepared in 1.5 mL eppendorf tubes by adding enough DPBS to make each sample a 10 mM solution according to its molecular weight. The pH was adjusted to be within 7.0 and 7.4.\nAfter 30 minutes 2×10^5 HL-60 cells (10^7 /mL) were added and incubated for 15 minutes at room temperature. The unbound cells were removed by washing the plate 3 times with HBSS containing HEPES buffer (20 mM), glucose (0.2%), CaCl2 (1 mM) and BSA (10 mg/mL). After removal of the wash buffer the bound cells remaining were lysed by addition of Nonidet P 40 (0.1%) in 25 mM citrate/phosphate buffer. After 5 minutes 50 μL of o-phenylenediamine dihydrochloride (1 mg/mL) in citrate/phosphate buffer containing 0.001% hydrogen peroxide was added to each well. After 5 to 10 minutes the development of color was halted by the addition of 40 μL of H2 SO4. Color developed was measured in a plate reading spectrophotometer at 492 nm."}, "[3]": {"details": "i.v. at 2.5, 3.0 and 3.5 h (FIG. 18), P<0.05"}},
  "note": "pIC50: −log10 of the molar value.",
  "data": [
    {"smiles": "CC(=O)NC1C(O)OC(CO)C(OC2OC(CO)C(O)C(OC3(C(=O)O)CC(O)C(NC(C)=O)C(C(O)C(O)CO)O3)C2O)C1O", "note": "(stereo not shown) [SLN, reference compound]", "values": [
      {"measurement": "effect on IgG immune complex-induced neutrophil accumulation / lung injury", "setting": "[1]", "value": "did not inhibit IgG immune complex induced lung injury"},
      {"measurement": "effect on hemorrhage", "setting": "[1]; versus PBS treated animals", "value": "no decrease in hemorrhage"},
      {"measurement": "effect on lung content of MPO", "setting": "[1]; versus PBS treated animals", "value": "no decrease in lung content of MPO"},
      {"measurement": "effect on vascular permeability", "setting": "[1]; versus PBS treated animals", "value": "no alteration in vascular permeability value"},
      {"measurement": "effect on histamine induced leukocyte rolling", "setting": "[2]", "value": "had no effect"},
      {"measurement": "Erythrocyte velocity", "setting": "[2]", "value": "3.0 ± 0.5", "unit": "mm/sec"},
      {"measurement": "Leukocyte adherence", "setting": "[2]", "value": "5.5 ± 1.4", "unit": "per 100 μm"},
      {"measurement": "Leukocyte emigration", "setting": "[2]", "value": "4.8 ± 2.8", "unit": "per field"},
      {"measurement": "Venular diameter", "setting": "[2]", "value": "31 ± 2", "unit": "μm"},
      {"measurement": "Wall shear rate", "setting": "[2]", "value": "495 ± 28", "unit": "s⁻¹"},
      {"measurement": "inhibition of binding of HL-60 cells to recombinant E-selectin", "setting": "recombinant E-selectin", "value": "not"}
    ]},
    {"smiles": "CCO[C@@H]1O[C@H](CO)[C@H](O)[C@H](O[C@@H]2O[C@H](CO)[C@@H](O[C@@H]3O[C@H](CO)[C@H](O)[C@H](O[C@]4(C(=O)O)C[C@H](O)[C@@H](NC(C)=O)[C@H]([C@H](O)[C@H](O)CO)O4)[C@H]3O)[C@H](O[C@@H]3O[C@@H](C)[C@@H](O)[C@@H](O)[C@@H]3O)[C@H]2NC(C)=O)[C@H]1O", "note": "[Z, Ethyl(sodium(5-acetamido-3,5-dideoxy-α-D-glycero-D-galacto-2-nonulopyanosylonate))-(2-3)-O-(β-D-galactopyranosyl)-(1-4)-O-((α-L-fucopyranosyl)-(1-3))-O-(2-acetamido-2-deoxy-β-D-glucopyranosyl)-(1-3)-O-β-D-galactopyranoside]", "values": [
      {"measurement": "effect on lung MPO content", "setting": "[1]; 50 μg (FIG. 19)", "value": "did not significantly reduce MPO content"},
      {"measurement": "effect on lung MPO content", "setting": "[1]; 100, 200 and 300 μg (FIG. 19)", "value": "significant reductions"},
      {"measurement": "effect on vascular permeability", "setting": "[1]; all doses, 50-500 μg (FIG. 19)", "value": "significant reductions in vascular permeability"},
      {"measurement": "effect on IgG immune complex-induced neutrophil accumulation / lung injury", "setting": "[1]", "value": "blocked IgG"},
      {"measurement": "reduction in MPO content", "setting": "[1]; [3]", "value": 27, "unit": "%"},
      {"measurement": "reduction in permeability", "setting": "[1]; [3]", "value": 20, "unit": "%"},
      {"measurement": "reduction in hemorrhage", "setting": "[1]; i.v. at 2.5, 3.0 and 3.5 h (FIG. 18), P=N.S.", "value": 21, "unit": "%"},
      {"measurement": "effect on hemorrhage", "setting": "[1]; two highest doses (FIG. 19)", "value": "statistically significant reductions in hemorrhage"},
      {"measurement": "effect on leukocyte adherence induced by 10^-5 M histamine", "setting": "[2]; 10 mg/Kg i.v.", "value": "significantly attenuated"},
      {"measurement": "effect on histamine induced leukocyte rolling", "setting": "[2]", "value": "inhibited leukocyte rolling"},
      {"measurement": "Erythrocyte velocity", "setting": "[2]", "value": "2.1 ± 0.2", "unit": "mm/sec"},
      {"measurement": "Leukocyte adherence", "setting": "[2]", "value": "2.3 ± 1.9", "unit": "per 100 μm"},
      {"measurement": "Leukocyte emigration", "setting": "[2]", "value": "2.0 ± 1.2", "unit": "per field"},
      {"measurement": "Venular diameter", "setting": "[2]", "value": "29 ± 0.2", "unit": "μm"},
      {"measurement": "Wall shear rate", "setting": "[2]", "value": "355 ± 14", "unit": "s⁻¹"},
      {"measurement": "inhibition of binding of HL-60 cells to recombinant E-selectin", "setting": "recombinant E-selectin", "value": "inhibited in a concentration dependent manner"},
      {"measurement": "pIC50", "setting": "recombinant E-selectin; read-out: IC50 for inhibition of HL-60 cell binding to recombinant E-selectin", "value": "~3.30"}
    ]}
  ]
}
